{"source": "ChEMBL document CHEMBL1201862", "about": "“PubChem BioAssay data set” (2004)", "key": {"[1]": {"target": "RNA-editing ligase 1, mitochondrial (Trypanosoma brucei brucei, UniProt P86926)", "sequence (P86926 whole entry)": "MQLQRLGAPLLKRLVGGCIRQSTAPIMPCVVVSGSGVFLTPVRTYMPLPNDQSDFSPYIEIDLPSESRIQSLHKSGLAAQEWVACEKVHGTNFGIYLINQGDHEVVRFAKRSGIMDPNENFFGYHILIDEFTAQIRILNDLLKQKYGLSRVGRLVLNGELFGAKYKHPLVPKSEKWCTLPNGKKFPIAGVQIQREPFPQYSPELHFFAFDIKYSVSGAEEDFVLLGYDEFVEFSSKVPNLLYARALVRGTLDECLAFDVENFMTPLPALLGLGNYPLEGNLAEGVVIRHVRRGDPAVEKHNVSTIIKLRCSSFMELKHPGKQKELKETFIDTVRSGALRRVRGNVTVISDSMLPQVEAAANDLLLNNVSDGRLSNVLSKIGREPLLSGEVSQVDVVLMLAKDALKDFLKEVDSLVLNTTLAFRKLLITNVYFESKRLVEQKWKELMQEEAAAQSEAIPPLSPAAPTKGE", "experiment": "TbREL1 ligase inhibitors, dose response, biochemical, fluorescence, Trypanosoma brucei (AID 1117295)", "assay_type": "functional"}, "[2]": {"experiment": "P. falciparum 3D7-ScDHODH growth inhibitors, dose response, SYBR Green, dry powder samples (AID 1159570);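 note: parasite growth measured after 72 hours of compound exposure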", "assay_type": "functional, cell-based"}, "[3]": {"experiment": "HepG2 cell cytotoxicity, dose response, cytotoxicity control, plate reader, dry powder samples (AID 1159569);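 note: inhibitor potency with signal falling toward the positive control level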", "assay_type": "functional, cell-based"}, "[4]": {"experiment": "P. falciparum Dd2 growth inhibitors, dose response, SYBR Green, cherry-picked samples (AID 1159567)", "assay_type": "functional, cell-based"}, "[5]": {"experiment": "P. falciparum Dd2 growth inhibitors, dose response, SYBR Green, dry powder samples (AID 1159566);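 note: potency for growth inhibition with lower SYBR green DNA signal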", "assay_type": "functional, cell-based"}, "[6]": {"experiment": "HepG2 cell cytotoxicity, dose response, cytotoxicity control, cherry-picked samples (AID 1159577)", "assay_type": "functional, cell-based"}, "[7]": {"experiment": "P. falciparum ATP4 D1247Y mutant growth inhibitors, dose response, NITD609-resistant line, SYBR Green, dry powder (AID 1159571);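 note: parasites synchronized at ring stage by sorbitol before testing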", "assay_type": "functional, cell-based"}, "Cytochrome P450 2C19": {"target": "Cytochrome P450 2C19 (Homo sapiens, UniProt P33261)", "sequence (P33261 whole entry)": "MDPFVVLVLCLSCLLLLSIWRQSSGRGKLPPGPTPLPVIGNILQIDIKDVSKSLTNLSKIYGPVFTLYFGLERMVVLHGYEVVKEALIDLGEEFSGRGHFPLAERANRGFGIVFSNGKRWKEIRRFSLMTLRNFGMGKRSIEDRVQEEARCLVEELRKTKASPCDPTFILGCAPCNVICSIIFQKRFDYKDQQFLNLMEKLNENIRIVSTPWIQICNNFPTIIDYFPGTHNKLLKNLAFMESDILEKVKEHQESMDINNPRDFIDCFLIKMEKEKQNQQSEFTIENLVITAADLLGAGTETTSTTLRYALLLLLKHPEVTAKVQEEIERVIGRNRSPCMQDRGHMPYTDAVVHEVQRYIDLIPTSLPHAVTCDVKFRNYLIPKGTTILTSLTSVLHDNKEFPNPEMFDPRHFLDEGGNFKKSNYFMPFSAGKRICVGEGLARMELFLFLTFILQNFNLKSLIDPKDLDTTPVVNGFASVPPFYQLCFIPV", "experiment": "Cytochrome panel assay with activity outcomes. Panel member name: p450-cyp2c19 Compounds with AC50 equal or less than 10 uM are considered active", "assay_type": "functional", "conditions": "read-out: AC50"}, "[8]": {"target": "1-phosphatidylinositol 4,5-bisphosphate phosphodiesterase gamma-1 (Homo sapiens, UniProt P19174)", "sequence (P19174 whole entry)": "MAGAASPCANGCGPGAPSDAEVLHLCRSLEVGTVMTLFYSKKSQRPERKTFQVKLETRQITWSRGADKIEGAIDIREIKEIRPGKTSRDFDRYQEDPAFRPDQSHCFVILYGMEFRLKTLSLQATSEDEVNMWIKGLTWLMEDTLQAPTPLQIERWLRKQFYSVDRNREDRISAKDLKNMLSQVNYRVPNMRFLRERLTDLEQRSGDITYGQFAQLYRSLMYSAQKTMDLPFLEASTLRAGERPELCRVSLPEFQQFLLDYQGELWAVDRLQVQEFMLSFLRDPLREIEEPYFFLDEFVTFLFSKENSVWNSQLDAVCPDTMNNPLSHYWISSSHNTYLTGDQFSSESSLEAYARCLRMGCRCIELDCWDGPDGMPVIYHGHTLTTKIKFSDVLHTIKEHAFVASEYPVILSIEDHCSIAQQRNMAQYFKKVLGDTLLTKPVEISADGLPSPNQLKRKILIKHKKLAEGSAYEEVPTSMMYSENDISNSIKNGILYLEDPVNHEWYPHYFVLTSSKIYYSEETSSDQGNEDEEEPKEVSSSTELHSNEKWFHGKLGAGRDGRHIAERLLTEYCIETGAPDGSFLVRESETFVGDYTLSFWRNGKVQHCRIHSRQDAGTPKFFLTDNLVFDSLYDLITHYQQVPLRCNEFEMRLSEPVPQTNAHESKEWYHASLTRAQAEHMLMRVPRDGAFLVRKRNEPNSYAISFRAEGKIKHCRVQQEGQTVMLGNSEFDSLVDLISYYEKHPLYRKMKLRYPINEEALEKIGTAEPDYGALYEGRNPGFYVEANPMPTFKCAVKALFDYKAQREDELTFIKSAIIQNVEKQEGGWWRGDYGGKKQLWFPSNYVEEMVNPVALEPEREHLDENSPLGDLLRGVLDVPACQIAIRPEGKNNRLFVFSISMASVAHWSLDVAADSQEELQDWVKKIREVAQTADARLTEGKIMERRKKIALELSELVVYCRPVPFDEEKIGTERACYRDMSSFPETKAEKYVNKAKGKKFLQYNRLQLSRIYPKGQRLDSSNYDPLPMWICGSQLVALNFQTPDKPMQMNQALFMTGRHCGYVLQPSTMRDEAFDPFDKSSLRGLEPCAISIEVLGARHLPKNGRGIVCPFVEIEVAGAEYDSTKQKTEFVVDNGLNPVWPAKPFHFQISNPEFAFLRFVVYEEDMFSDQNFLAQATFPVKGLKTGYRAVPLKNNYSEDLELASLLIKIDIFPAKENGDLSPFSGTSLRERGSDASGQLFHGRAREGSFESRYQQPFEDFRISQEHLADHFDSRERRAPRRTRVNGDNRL", "experiment": "Counterscreen for inhibitors of phospholipase C isozymes (PLC-B3): Fluorescence-based biochemical high throughput dose response assay to identify inhibitors of phospholipase C isozymes (PLC-gamma1)."}, "[9]": {"target": "1-phosphatidylinositol 4,5-bisphosphate phosphodiesterase beta-3 (Homo sapiens, UniProt Q01970)", "sequence (Q01970 whole entry)": "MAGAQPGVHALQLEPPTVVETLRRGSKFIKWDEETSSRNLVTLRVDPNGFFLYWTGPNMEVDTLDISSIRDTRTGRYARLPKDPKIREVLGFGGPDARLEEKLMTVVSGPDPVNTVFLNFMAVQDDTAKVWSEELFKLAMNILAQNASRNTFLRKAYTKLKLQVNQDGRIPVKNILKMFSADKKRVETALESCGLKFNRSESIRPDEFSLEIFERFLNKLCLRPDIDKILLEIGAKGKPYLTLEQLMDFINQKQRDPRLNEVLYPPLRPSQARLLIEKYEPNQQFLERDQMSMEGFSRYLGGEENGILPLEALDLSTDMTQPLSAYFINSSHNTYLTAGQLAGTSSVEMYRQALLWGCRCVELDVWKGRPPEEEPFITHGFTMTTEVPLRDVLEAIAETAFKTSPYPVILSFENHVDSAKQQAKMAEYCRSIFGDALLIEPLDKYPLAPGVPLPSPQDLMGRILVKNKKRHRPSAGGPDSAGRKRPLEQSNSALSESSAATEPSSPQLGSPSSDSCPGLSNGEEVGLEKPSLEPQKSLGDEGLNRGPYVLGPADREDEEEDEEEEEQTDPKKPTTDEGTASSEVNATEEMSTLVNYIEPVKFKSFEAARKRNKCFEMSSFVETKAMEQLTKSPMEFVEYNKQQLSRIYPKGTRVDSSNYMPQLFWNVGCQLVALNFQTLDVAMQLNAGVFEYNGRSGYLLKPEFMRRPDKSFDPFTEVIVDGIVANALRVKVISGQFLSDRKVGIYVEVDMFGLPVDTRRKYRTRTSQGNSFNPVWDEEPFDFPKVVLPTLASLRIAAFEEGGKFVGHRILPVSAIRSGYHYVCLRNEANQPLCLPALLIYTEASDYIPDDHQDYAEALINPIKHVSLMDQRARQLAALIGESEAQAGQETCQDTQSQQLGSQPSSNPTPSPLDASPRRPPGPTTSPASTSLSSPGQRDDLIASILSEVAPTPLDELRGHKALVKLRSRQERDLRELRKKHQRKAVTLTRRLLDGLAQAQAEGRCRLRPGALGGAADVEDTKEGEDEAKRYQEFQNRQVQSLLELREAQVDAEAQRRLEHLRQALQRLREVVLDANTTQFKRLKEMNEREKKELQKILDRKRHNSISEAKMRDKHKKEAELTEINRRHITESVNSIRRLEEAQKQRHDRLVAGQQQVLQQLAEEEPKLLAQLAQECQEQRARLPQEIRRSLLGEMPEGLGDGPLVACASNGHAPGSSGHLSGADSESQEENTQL", "experiment": "Fluorescence-based biochemical high throughput dose response assay to identify inhibitors of phospholipase C isozymes (PLC-B3)."}, "Cytochrome P450 2D6": {"target": "Cytochrome P450 2D6 (Homo sapiens, UniProt P10635)", "sequence (P10635 whole entry)": "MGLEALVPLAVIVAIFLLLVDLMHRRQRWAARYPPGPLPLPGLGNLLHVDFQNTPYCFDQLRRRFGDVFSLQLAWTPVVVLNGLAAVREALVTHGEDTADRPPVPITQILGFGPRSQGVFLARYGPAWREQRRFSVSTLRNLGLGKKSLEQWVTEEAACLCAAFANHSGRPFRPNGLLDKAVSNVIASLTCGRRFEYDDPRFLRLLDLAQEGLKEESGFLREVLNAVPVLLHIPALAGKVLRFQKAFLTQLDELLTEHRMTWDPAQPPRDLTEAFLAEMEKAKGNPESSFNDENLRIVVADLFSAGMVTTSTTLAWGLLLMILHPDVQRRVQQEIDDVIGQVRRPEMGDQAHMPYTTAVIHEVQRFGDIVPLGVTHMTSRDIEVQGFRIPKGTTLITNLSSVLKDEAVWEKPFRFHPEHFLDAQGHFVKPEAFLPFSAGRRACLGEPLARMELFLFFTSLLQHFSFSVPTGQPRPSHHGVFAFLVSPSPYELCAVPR"}, "Cytochrome P450 2C9": {"target": "Cytochrome P450 2C9 (Homo sapiens, UniProt P11712)", "sequence (P11712 whole entry)": "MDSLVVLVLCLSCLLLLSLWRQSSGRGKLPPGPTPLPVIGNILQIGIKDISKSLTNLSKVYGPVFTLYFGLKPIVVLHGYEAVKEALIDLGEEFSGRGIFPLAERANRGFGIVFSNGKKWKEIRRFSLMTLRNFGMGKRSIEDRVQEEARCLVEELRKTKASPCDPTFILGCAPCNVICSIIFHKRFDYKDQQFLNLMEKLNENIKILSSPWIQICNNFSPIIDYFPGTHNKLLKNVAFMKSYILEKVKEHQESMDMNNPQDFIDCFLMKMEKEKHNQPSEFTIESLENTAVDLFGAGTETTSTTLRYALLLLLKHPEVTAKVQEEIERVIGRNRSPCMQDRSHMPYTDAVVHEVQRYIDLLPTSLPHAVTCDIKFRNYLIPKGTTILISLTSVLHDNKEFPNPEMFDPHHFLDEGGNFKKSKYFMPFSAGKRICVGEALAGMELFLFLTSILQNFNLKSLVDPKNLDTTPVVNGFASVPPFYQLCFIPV"}, "[10]": {"experiment": "inhibitors of HIV Env-driven cell fusion, dose response, cherry-pick (AID 652057)", "assay_type": "functional, cell-based"}, "[11]": {"experiment": "ZM109 Env clade C HIV-1 fusion inhibitors, dose response, HeLa effector, CEM target cells, luciferase, cherry-pick (AID 652058)", "assay_type": "functional, cell-based"}, "[12]": {"experiment": "HIV Env cell-cell fusion inhibitors, dose response, HIV entry, plate reader, dry powder (AID 687023)", "assay_type": "functional, cell-based"}, "[13]": {"experiment": "cytotoxicity in HEK-293T cells, dose response, cytotoxicity control for TCR NF-kB inhibitor project, luminescence, T-cell screen hits (AID 489026);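 note: cells exposed to compound about 14 hours before the viability readout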", "assay_type": "functional, cell-based"}, "Paired box protein Pax-8": {"target": "Paired box protein Pax-8 (Homo sapiens, UniProt Q06710)", "sequence (Q06710 whole entry)": "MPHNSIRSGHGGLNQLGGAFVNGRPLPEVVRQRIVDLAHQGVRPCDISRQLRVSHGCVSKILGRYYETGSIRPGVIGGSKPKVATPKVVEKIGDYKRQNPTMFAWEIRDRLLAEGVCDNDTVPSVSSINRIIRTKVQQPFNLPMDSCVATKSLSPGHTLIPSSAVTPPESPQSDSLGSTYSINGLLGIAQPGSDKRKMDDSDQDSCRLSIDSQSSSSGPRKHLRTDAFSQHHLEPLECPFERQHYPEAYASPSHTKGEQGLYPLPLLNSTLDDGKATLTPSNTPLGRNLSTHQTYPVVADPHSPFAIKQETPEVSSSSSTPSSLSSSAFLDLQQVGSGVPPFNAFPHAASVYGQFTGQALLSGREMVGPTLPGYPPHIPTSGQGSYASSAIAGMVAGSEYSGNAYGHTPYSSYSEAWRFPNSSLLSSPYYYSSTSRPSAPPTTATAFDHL", "experiment": "inhibitors of PAX8-driven TPO luciferase reporter, dose response, RMG-I cells, cherry-pick (AID 687027);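 note: luciferase reporter driven by Pax8 target thyroperoxidase promoter measured by SteadyGlo luminescence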", "assay_type": "functional, cell-based"}, "[14]": {"experiment": "A549 cell cytotoxicity, dose response, cytotoxicity control, plate reader, cherry-pick, antagonist series (AID 743412)", "assay_type": "functional, cell-based"}, "[15]": {"experiment": "HepG2 cell cytotoxicity, dose response, cytotoxicity control, plate reader, cherry-pick, antagonist series (AID 743416)", "assay_type": "functional, cell-based"}, "[16]": {"experiment": "LGR2 antagonists, dose response, cell-based, HEK293, CRE-luciferase reporter, cherry pick, set 2 (AID 743343);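 note: transfected cells were stimulated with diluted bursicon conditioned medium after compound addition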", "assay_type": "functional"}, "[17]": {"experiment": "non-specific cell cytotoxicity, dose response, cytotoxicity control for PAX8 inhibitor project, plate reader, dry powder samples (AID 743021)", "assay_type": "functional, cell-based"}, "[18]": {"experiment": "MC4R antagonists, dose response, counter-screen for LGR2 antagonist project, cell-based, plate reader, cherry pick (AID 743444);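 note: transfected HEK 293 cells stimulated with alpha-MSH peptide; potency of inhibitors of the alpha-MSH evoked signal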", "assay_type": "functional"}, "[19]": {"experiment": "HEK293 cell cytotoxicity, dose response, cytotoxicity control, plate reader, cherry-picked samples (AID 743446)", "assay_type": "functional, cell-based"}, "[20]": {"experiment": "A2780 ovarian cancer cell cytotoxicity, dose response, cytotoxicity control, plate reader, dry powder samples (AID 743046)", "assay_type": "functional, cell-based"}, "[21]": {"experiment": "NIH:OVCAR-3 ovarian cancer cell cytotoxicity, dose response, PAX8 inhibitor project, plate reader, dry powder samples (AID 743044)", "assay_type": "functional, cell-based"}, "[22]": {"experiment": "cytotoxicity in OVCAR8 ovarian cancer cells, dose response, PAX8 project, cell-based, plate reader, dry powder samples (AID 743197)", "assay_type": "functional", "conditions": "OVCAR-8"}, "[23]": {"experiment": "PAX2 cell-based inhibition, dose response, selectivity assay for PAX8 inhibitor project, plate reader, dry powder samples (AID 743048);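 note: HEK293 cells carrying a WT1 promoter luciferase reporter driven by expressed Pax2; potency is for inhibition of Pax2 driven reporter signal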", "assay_type": "functional"}, "[24]": {"experiment": "PAX5 activity inhibitors, dose response, selectivity assay for PAX8 inhibitor project, cell-based, plate reader, dry powder samples (AID 743047);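 note: HEK293 cells carrying a Pax5 driven CD19 promoter luciferase reporter; potency of inhibitors that lower reporter luminescence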", "assay_type": "functional"}, "[25]": {"experiment": "cytotoxicity in COV434 cells, dose response, cytotoxicity control for PAX8 inhibitor project, cell-based, plate reader, dry powder, SA7 (AID 743145)", "assay_type": "functional"}}, "note": "Calls of active or inactive are those of the source."}
{"smiles": "COC(=O)C1=C(C)N(Cc2ccccc2C(F)(F)F)C(NCc2ccc(C(F)(F)F)cc2)=NC1c1ccc(C(F)(F)F)cc1", "note": "(configuration not stated)", "values": [{"measurement": "IC50", "setting": "[1]", "value": "> 96.6 µM (inactive)"}]}
{"smiles": "C[C@@H]1CN([C@@H](C)CO)C(=O)c2c(c3ccccc3n2C)-c2ccccc2CO[C@H]1CN(C)C(=O)Nc1cccc(Cl)c1Cl", "values": [{"measurement": "AC50", "setting": "[2]", "value": "2.3 µM (active)"}, {"measurement": "AC50", "setting": "[3]", "value": "27.4 µM (active)"}, {"measurement": "AC50", "setting": "[4]", "value": "1.86 µM (active)"}, {"measurement": "AC50", "setting": "[5]", "value": "1.49 µM (active)"}, {"measurement": "AC50", "setting": "[6]", "value": "> 39 µM (inactive)"}, {"measurement": "AC50", "setting": "[7]", "value": "2.21 µM (active)"}]}
{"smiles": "O=C(Nc1cccc2ccccc12)c1ccccc1", "values": [{"measurement": "AC50", "setting": "Cytochrome P450 2C19", "value": "2.51 µM (inconclusive)"}, {"measurement": "IC50", "setting": "[8]", "value": "> 123 µM (inactive)"}, {"measurement": "IC50", "setting": "[9]", "value": "> 123 µM (inactive)"}, {"measurement": "AC50", "setting": "Cytochrome P450 2D6", "value": "0.00251 µM (inconclusive)"}, {"measurement": "AC50", "setting": "Cytochrome P450 2C9", "value": "inconclusive"}]}
{"smiles": "Cc1ccc(S(=O)(=O)N(C)C[C@@H]2Oc3ccc(NS(=O)(=O)c4c(C)noc4C)cc3CC(=O)N([C@H](C)CO)C[C@@H]2C)cc1", "values": [{"measurement": "AC50", "setting": "[10]", "value": "23.2 µM (active)"}, {"measurement": "AC50", "setting": "[11]", "value": "5.38 µM (active)"}, {"measurement": "AC50", "setting": "[12]", "value": "11.4 µM (active)"}]}
{"smiles": "c1cc2c(cc1C1=NN=C(NC3CC3)SC1)OCCO2", "values": [{"measurement": "IC50", "setting": "[13]", "value": "> 80 µM (inactive)"}, {"measurement": "AC50", "setting": "Paired box protein Pax-8", "value": "2.14 µM (active)"}, {"measurement": "AC50", "setting": "[14]", "value": "5.39 µM (active)"}, {"measurement": "AC50", "setting": "[15]", "value": "6.46 µM (active)"}, {"measurement": "AC50", "setting": "[16]", "value": "0.276 µM (active)"}, {"measurement": "AC50", "setting": "[17]", "value": "7.92 µM (active)"}, {"measurement": "AC50", "setting": "[18]", "value": "0.251 µM (active)"}, {"measurement": "AC50", "setting": "[19]", "value": "4.07 µM (active)"}]}
{"smiles": "Cc1noc(C)c1S(=O)(=O)N(C)C[C@H]1OCCCC[C@@H](C)Oc2ccc(NS(=O)(=O)c3ccc(Cl)cc3)cc2C(=O)N([C@@H](C)CO)C[C@@H]1C", "values": [{"measurement": "AC50", "setting": "Paired box protein Pax-8", "value": "10.5 µM (active)"}, {"measurement": "AC50", "setting": "[20]", "value": "12.1 µM (active)"}, {"measurement": "AC50", "setting": "[21]", "value": "46.2 µM (active)"}, {"measurement": "AC50", "setting": "[22]", "value": "> 70 µM (inactive)"}]}
{"smiles": "COc1ccccc1C#Cc1ccc([C@@H]2[C@@H](C#N)N(C(=O)C3CCCCC3)[C@H]2CO)cc1", "values": [{"measurement": "AC50", "setting": "Paired box protein Pax-8", "value": "6.05 µM (active)"}, {"measurement": "AC50", "setting": "[23]", "value": "31.9 µM (active)"}, {"measurement": "AC50", "setting": "[24]", "value": "24.2 µM (active)"}, {"measurement": "AC50", "setting": "[25]", "value": "> 70 µM (inactive)"}, {"measurement": "AC50", "setting": "[2]", "value": "0.689 µM (active)"}, {"measurement": "AC50", "setting": "[3]", "value": "21.8 µM (active)"}, {"measurement": "AC50", "setting": "[4]", "value": "1.37 µM (active)"}, {"measurement": "AC50", "setting": "[5]", "value": "0.562 µM (active)"}, {"measurement": "AC50", "setting": "[6]", "value": "> 39 µM (inactive)"}, {"measurement": "AC50", "setting": "[7]", "value": "1.14 µM (active)"}]}
